Laboratory results published in a melting point compilation (Tetko et al.; mined from patent text by program, amines drawn as free bases though some values may be those of a salt).
Non-standard residues stand in square brackets, D forms with d. Residues, ends and D or L forms follow the SMILES beside them. ξ: configuration not given here. *: point of attachment. Boc = CC(C)(C)OC(=O)*; ξA = CC(N)C(=O)O

melting point [°C]	SMILES
192 to 194	Cc1cccc(COc2cccc(OCc3cc(=O)c4ccccc4n3C)c2)c1OCC(=O)O
204 to 206	Nc1nc(-c2ccccc2)c(-c2ccc(=O)n(CC3CC3)n2)s1
150	CCc1nnc(-c2ccc(OC)cc2)n1-c1ccc(OC)c(OC)c1
236 to 238	C/C(=C\c1ccc(C(=O)O)cc1)c1cc2c(s1)C(C)(C)CCC2(C)C
135 to 139	CCN(CC)CCNC(=O)c1cc(Cl)c(N)cc1OCC(=O)c1cccs1
178 to 180	Cc1nc(C)c(Cl)c(NCc2ccc(Oc3ccc4ncc([N+](=O)[O-])n4n3)c(OCC3CC3)c2)n1
68	CC1=NC(NC(=O)OCc2ccccc2)C(=O)N(CC(=O)C(C)(C)C)c2ccccc21 (stereo unspecified)
216 to 219	CC(C)(C)c1cc(C(=O)c2cc[nH]n2)cc(C(C)(C)C)c1O
185 to 186	OCc1cc(-c2ccc(Cl)cc2)nc2ccnn12
162 to 164	COc1ccc(Cc2nc3cc(Cl)cc(CC(N)=O)c3o2)cc1OC1CCCC1
85	O=C1c2ccccc2C(=O)C2(CC3CCCC(C(F)(F)F)C3)OC12 (stereo unspecified)
95	CCOC(=O)NC(=S)OCc1ccc(Cl)cc1
179 to 180	CC(C)(OCc1nn(C(c2ccccc2)(c2ccccc2)c2ccccc2)c2ccccc12)C(=O)O
267	CC(=O)Nc1ccc2c(c1)C(c1cccn1-c1cc(Cl)cc(Cl)c1)C(=O)N2 (stereo unspecified)
104 to 106	CC(C)(CI)c1cc(Cl)nnc1Cl
94 to 97	Fc1ccccc1NC(=S)c1ccccn1
72 to 73	CS(=O)(=O)N1CC(CN2CCCC2)Cc2ccccc21 (stereo unspecified)
222 to 224	Nc1nc(-c2cc(Cl)ccc2Cl)nc(N2CCC(O)CC2)n1
205 to 209	CN(C)Cc1cc(C(=O)Nc2nc(-c3ccco3)c(C(=O)c3ccccc3)s2)ccn1
98 to 100	COC(=O)CNC(=O)C(C)NC(=O)CNC(=O)OC(C)(C)C (stereo not drawn) (Boc-Gly-[ξA]-Gly-OMe)
215 to 217	CNC(=S)c1cnn(-c2ccccc2)c1C#N
125 to 127	Cc1ccc(O[C@@H]2CCNC[C@H]2O)cc1C (relative stereo)
154	CCCNC(=O)COC1C(O)C(CO)OC(Oc2ccc(N)cc2)C1O (stereo unspecified)

melting point [°C]	SMILES
134 to 135	COC(=O)c1ccc(COc2ccc(-c3ncccc3S(=O)(=O)N(C(=O)OCC(C)C)c3ncc(C)nc3OC)cc2)cc1
145	O=c1ccc(-c2ccc(F)cc2)nn1CCF
118 to 119	O=C(O)CSC(CCCc1ccccc1)c1ccc(OCc2ccc3ccccc3n2)cc1 (stereo unspecified)
68	C#Cc1ccc2c(c1)C(CCOCCOCCOC)(CCOCCOCCOC)c1cc(C#C)ccc1-2
58 to 60	CCCCCCCCCCCCCC(=O)Oc1ccc([N+](=O)[O-])cc1OC(=O)CCCCCCCCCCCCC
220 to 221	Cc1c(S(C)(=O)=O)cc(C(C)(C)C)c(O)c1C(=O)Nc1ccc(S(=O)(=O)C(F)(F)F)cc1Cl
192 to 194	CCCCc1nc2ccccc2n1-c1ccc(O)cc1
238 to 240	Cc1cc2c(N)c([N+](=O)[O-])cnc2s1
204 to 206	CN1C(=O)Cn2c(-c3ccccc3)nnc2-c2cc(Cl)ccc21
123 to 125	CCCOC(C)c1ccc(-c2ccc(O)cc2)cc1 (single isomer, unassigned; (+))
181 to 183	COc1ccc(/C=C/S(=O)(=O)Nc2ccc(S(N)(=O)=O)cc2)cc1
230	CCc1cccc(C)c1CNc1nc(C(=O)O)cn2c(C)c(C)nc12
174 to 175	Cc1ccc(C)n1CCNC(=S)Nc1ccc(C(=O)O)cc1
93 to 95	CCCCCCCCCCCCc1nnn(C(C(=O)Nc2c(C(C)C)cccc2C(C)C)c2ccccc2)n1 (stereo unspecified)
173 to 175	CCOc1cc2ncc(C#N)c(Nc3cccc(Br)c3)c2cc1OCC
252 to 255	O=C1Nc2cc(Cl)cc3c2N(CC3)c2ccccc21
127 to 129	CC1Cc2c(N)c(Cl)cc(C(=O)NCCC34CCCN3CCC4)c2O1 (stereo unspecified)
74 to 75	CCC1(C)CC(=O)C(C(=O)Nc2ccc(Cl)c(Cl)c2)C(=O)C1 (stereo unspecified)
99 to 100	COCCOC(=O)C1=C(C)NC(C)=C(C(=O)OC(C)C)C1c1ccccc1F (stereo unspecified)
120 to 123	O=C(c1ccc(F)cc1)N1CCC[C@H](c2noc(-c3ccc(F)cc3)n2)C1
231 to 233	O=C(O)c1ccc(COCc2csc3nc(C(=O)NCc4cccc(Br)c4)[nH]c(=O)c23)cc1
102 to 105	O=Cc1cc2c3c(ccc4c3c1CCC4)CCC2
143 to 144	COc1ccc(CCNC(=O)C(F)(F)F)cc1S(=O)(=O)N=CN(C)C

melting point [°C]	SMILES
185 to 186	NC(=O)c1cccc(-c2ccc(Cl)c3cc(Cc4ccc(F)c(F)c4)sc23)c1
252 to 256	Cc1cc(N(C)c2ccccc2)c2nn(C)cc2n1
139 to 141	COC(=O)CCn1c(=O)n2n(c1=O)C(C(=O)OC)C=CC2C(=O)OC (stereo unspecified)
170 to 171	CC(C)C(=O)c1cccc(S(N)(=O)=O)c1
177 to 179	Nc1cnn2c1NCC2
102 to 105	COc1ccc(Sc2ccccc2CC(=O)O)cc1
105	O=C(OCc1ccccc1)N1CCC2(CC1)CN(c1ccc(Cl)c(Cl)c1)C(=O)O2
188 to 189	O=C(COc1ccc2ccccc2c1)NCc1ccc(C(=O)O)cc1
72	CC(C)(C)OC(=O)N1CCN(CCOc2cccc3c2c2cccc4c2n3C(c2ccccc2)CO4)CC1 (stereo unspecified)
130	CCC(CC)CNC(=O)c1ccc2cccc(Cc3ccc(C(=O)OC)cc3OC)c2c1
79 to 80	CCC(=O)OCc1c2ccccc2cc2ccccc12
66 to 69	CC(=O)C1C(=O)CC(C#N)CC1=O (stereo unspecified)
231	CC(=O)OCC(=O)C12OCOC1CC1C3CCC4=CC(=O)CCC4(C)C3(Cl)C(O)CC12C (stereo unspecified)
208 to 209	O=C(O)Cc1cc(=O)n(Cc2ccc(Cl)cc2)c2ccccc12
189 to 191	O=C(CCCc1ccccc1)N[C@H]1C[C@H](C(=O)O)Nc2cc(Cl)cc(Cl)c21 (relative stereo)
154	CC(C)(C)C(=O)C(Cl)C(=O)Nc1ccccc1 (stereo unspecified)
97	CC(=O)N1CC(=O)NC(=O)N1Cc1ccc(Cl)cc1
173 to 176	O=S(c1[nH]c(-c2ccc(Cl)cc2)c(Br)c1Br)C(F)(F)F (stereo unspecified)
332 to 334	Cn1cc(C2=C(c3ccncc3)C(=O)NC2=O)c2ccccc21
136 to 138	N#Cc1cc(Sc2ccc(Cl)c(Cl)c2)ccc1[N+](=O)[O-]
172 to 173	CCC(C=CC(C)C1CCC2C3CC=C4CC(OC(=O)NCCO)CCC4(C)C3CCC12C)C(C)C (stereo unspecified)

SMILES	melting point [°C]
CCOC(=O)c1ncn2c1CNC(=O)c1cc(OC)ccc1-2	240
NP(N)(=O)NC(=O)c1cccc([N+](=O)[O-])c1	168 to 172
CN1C(=O)[C@H](NC(=O)CCc2ccc(Cl)cc2Cl)N=C(c2ccccc2)c2ccccc21	92 to 95
Cc1cc(Br)ccc1NC(=O)c1cc([N+](=O)[O-])ccc1NC(=O)CF	247 to 249
